From ChEMBL document CHEMBL4311942, “Design of Trp-Rich Dodecapeptides with Broad-Spectrum Antimicrobial Potency and Membrane-Disruptive Mechanism” (J Med Chem, 2019)
In brackets after ≈: the same amount, converted by molar mass. Where a SMILES comes first, the peptide text is derived from it.

What was measured:
[1] = system: Staphylococcus aureus; assay: Antibacterial activity against Staphylococcus aureus ATCC 25923 incubated for 18 to 24 hrs by broth microdilution method; assay type: functional
[2] = system: Staphylococcus aureus; assay: Antibacterial activity against Staphylococcus aureus ATCC 29213 incubated for 18 to 24 hrs by broth microdilution method; assay type: functional
[3] = system: Salmonella typhimurium; assay: Antibacterial activity against Salmonella enterica serovar typhimurium C77-31 incubated for 18 to 24 hrs by broth microdilution method; assay type: functional, Salmonella enterica subsp. enterica serovar Typhimurium
[4] = system: Escherichia coli; assay: Antibacterial activity against Escherichia coli UB1005 incubated for 18 to 24 hrs by broth microdilution method; assay type: functional
[5] = system: Escherichia coli; assay: Antibacterial activity against Escherichia coli ATCC 25922 incubated for 18 to 24 hrs by broth microdilution method; assay type: functional
[6] = system: Staphylococcus epidermidis; assay: Antibacterial activity against Staphylococcus epidermidis ATCC 12228 incubated for 18 to 24 hrs by broth microdilution method; assay type: functional
[7] = system: Erythrocyte; assay: Haemolytic activity in human erythrocytes assessed as lowest concentration causing 5% hemolysis after 1 hr; assay type: ADME, cell-based
[8] = Therapeutic index, ratio of MHC for human RBC to geometric mean of peptide MIC for Escherichia coli ATCC 25922; assay type: toxicity; details: pooled result: one value given for 6 cell lines, strains, targets or settings, read-out: TI
[9] = Cytotoxicity against mouse RAW264.7 cells assessed as cell survival at <= 32 uM after 24 hrs by MTT assay relative to control; assay type: cell-based; details: RAW264.7 cells, up to 32 µM, read-out: Activity
[10] = system: Escherichia coli; assay: Antibacterial activity against Escherichia coli 20411 clinical isolate incubated for 18 to 24 hrs by broth microdilution method; assay type: functional
[11] = system: Acinetobacter baumannii; assay: Antibacterial activity against Acinetobacter baumannii AB1901 clinical isolate incubated for 18 to 24 hrs by broth microdilution method; assay type: functional
[12] = system: Acinetobacter baumannii; assay: Antibacterial activity against Acinetobacter baumannii AB1902 clinical isolate incubated for 18 to 24 hrs by broth microdilution method; assay type: functional
[13] = system: Pseudomonas aeruginosa; assay: Antibacterial activity against Pseudomonas aeruginosa 25349 clinical isolate incubated for 18 to 24 hrs by broth microdilution method; assay type: functional
[14] = system: Escherichia coli; assay: Antibacterial activity against ciprofloxacin-resistant Escherichia coli ATCC 25922 incubated for 18 to 24 hrs; assay type: functional
[15] = Resistance index, ratio of MIC for antibacterial activity against ciprofloxacin-resistant Escherichia coli to MIC for Escherichia coli ATCC 25922 incubated for 18 to 24 hrs by broth microdilution method; assay type: functional

| SMILES | MIC [1] [µM] | MIC [2] [µM] | MIC [3] [µM] | MIC [4] [µM] | MIC [5] [µM] | MIC [6] [µM] | MHC [7] [µM] | selectivity ratio [8] | viability at 24 h [9] [%] | MIC [10] [µM] | MIC [11] [µM] | MIC [12] [µM] | MIC [13] [µM] | MIC [14] [µM] | Ratio [15] |
| --- | --- | --- | --- | --- | --- | --- | --- | --- | --- | --- | --- | --- | --- | --- | --- |
| CC(C)C[C@H](NC(=O)[C@H](CCCNC(=N)N)NC(=O)[C@@H](NC(=O)[C@H](CCCNC(=N)N)NC(=O)[C@@H](NC(=O)[C@H](CCCCN)NC(=O)[C@@H](NC(=O)[C@H](CCCNC(=N)N)NC(=O)[C@H](CC(C)C)NC(=O)[C@H](CCCNC(=N)N)NC(=O)[C@@H](N)C(C)C)C(C)C)[C@@H](C)O)C(C)C)C(=O)N[C@@H](CCCCN)C(N)=O (H-VRLRVKTRVRLK-NH2) | 64 (≈ 97.5 µg/mL) | 16 (≈ 24.4 µg/mL) | 16 (≈ 24.4 µg/mL) | 4 (≈ 6.09 µg/mL) | 4 (≈ 6.09 µg/mL) | 32 (≈ 48.7 µg/mL) | > 128 | 18 | ≥ 70 |  |  |  |  |  |  |
| CC(C)C[C@H](NC(=O)[C@H](CCCNC(=N)N)NC(=O)[C@H](Cc1c[nH]c2ccccc12)NC(=O)[C@H](CCCNC(=N)N)NC(=O)[C@@H](NC(=O)[C@H](Cc1c[nH]c2ccccc12)NC(=O)[C@H](Cc1c[nH]c2ccccc12)NC(=O)[C@H](CCCNC(=N)N)NC(=O)[C@H](CC(C)C)NC(=O)[C@H](CCCNC(=N)N)NC(=O)[C@@H](N)CCCNC(=N)N)[C@@H](C)O)C(=O)N[C@@H](CCCCN)C(N)=O (H-RRLRWWTRWRLK-NH2) | 8 (≈ 14.5 µg/mL) | 4 (≈ 7.25 µg/mL) | 8 (≈ 14.5 µg/mL) | 4 (≈ 7.25 µg/mL) | 4 (≈ 7.25 µg/mL) | 8 (≈ 14.5 µg/mL) | > 128 | 45.2 | ≥ 70 |  |  |  |  |  |  |
| CO[C@H]1/C=C/O[C@@]2(C)Oc3c(C)c(O)c4c(O)c(c(/C=N/N5CCN(C)CC5)c(O)c4c3C2=O)NC(=O)/C(C)=C\C=C\[C@H](C)[C@H](O)[C@@H](C)[C@@H](O)[C@@H](C)[C@H](OC(C)=O)[C@@H]1C [RIFAMPIN] | 0.25 (≈ 0.206 µg/mL) | 0.25 (≈ 0.206 µg/mL) | 4 (≈ 3.29 µg/mL) | 8 (≈ 6.58 µg/mL) | 4 (≈ 3.29 µg/mL) | 0.25 (≈ 0.206 µg/mL) |  |  |  | 4 (≈ 3.29 µg/mL) | 1 (≈ 0.823 µg/mL) | 1 (≈ 0.823 µg/mL) | 16 (≈ 13.2 µg/mL) | 8 (≈ 6.58 µg/mL) | 2 |

Now from value to compound, other results behind:

| MIC [1] [µM] | MIC [2] [µM] | MIC [3] [µM] | MIC [4] [µM] | MIC [5] [µM] | MIC [6] [µM] | SMILES | MHC [7] [µM] | selectivity ratio [8] | viability at 24 h [9] [%] | MIC [10] [µM] | MIC [11] [µM] | MIC [12] [µM] | MIC [13] [µM] | MIC [14] [µM] | Ratio [15] |
| --- | --- | --- | --- | --- | --- | --- | --- | --- | --- | --- | --- | --- | --- | --- | --- |
| 32 (≈ 55.2 µg/mL) | 64 (≈ 110 µg/mL) | 64 (≈ 110 µg/mL) | 16 (≈ 27.6 µg/mL) | 16 (≈ 27.6 µg/mL) | 16 (≈ 27.6 µg/mL) | CC(C)C[C@H](NC(=O)[C@H](CCCNC(=N)N)NC(=O)[C@H](CCCCN)NC(=O)[C@H](CCCNC(=N)N)NC(=O)[C@@H](NC(=O)[C@H](Cc1c[nH]c2ccccc12)NC(=O)[C@H](CCCCN)NC(=O)[C@H](CCCNC(=N)N)NC(=O)[C@H](CC(C)C)NC(=O)[C@H](Cc1c[nH]c2ccccc12)NC(=O)[C@@H](N)CCCNC(=N)N)[C@@H](C)O)C(=O)N[C@@H](CCCCN)C(N)=O (H-RWLRKWTRKRLK-NH2) | > 128 | 8.98 | ≥ 70 |  |  |  |  |  |  |
| 16 (≈ 28.5 µg/mL) | 4 (≈ 7.14 µg/mL) | 8 (≈ 14.3 µg/mL) | 4 (≈ 7.14 µg/mL) | 2 (≈ 3.57 µg/mL) | 16 (≈ 28.5 µg/mL) | CC(C)C[C@H](NC(=O)[C@H](CCCNC(=N)N)NC(=O)[C@H](Cc1c[nH]c2ccccc12)NC(=O)[C@H](CCCNC(=N)N)NC(=O)[C@@H](NC(=O)[C@H](CCCCN)NC(=O)[C@H](Cc1c[nH]c2ccccc12)NC(=O)[C@H](CCCNC(=N)N)NC(=O)[C@H](CC(C)C)NC(=O)[C@H](Cc1c[nH]c2ccccc12)NC(=O)[C@@H](N)CCCNC(=N)N)[C@@H](C)O)C(=O)N[C@@H](CCCCN)C(N)=O (H-RWLRWKTRWRLK-NH2) | > 128 | 40.3 | ≥ 70 |  |  |  |  |  |  |
| 16 (≈ 28.1 µg/mL) | 16 (≈ 28.1 µg/mL) | 32 (≈ 56.1 µg/mL) | 4 (≈ 7.02 µg/mL) | 16 (≈ 28.1 µg/mL) | 16 (≈ 28.1 µg/mL) | CC(C)C[C@H](NC(=O)[C@H](CCCNC(=N)N)NC(=O)[C@H](Cc1c[nH]c2ccccc12)NC(=O)[C@H](CCCNC(=N)N)NC(=O)[C@@H](NC(=O)[C@H](CCCCN)NC(=O)[C@H](Cc1c[nH]c2ccccc12)NC(=O)[C@H](CCCNC(=N)N)NC(=O)[C@H](CC(C)C)NC(=O)[C@H](CCCNC(=N)N)NC(=O)[C@@H](N)CCCNC(=N)N)[C@@H](C)O)C(=O)N[C@@H](CCCCN)C(N)=O (H-RRLRWKTRWRLK-NH2) | > 128 | 18 | ≥ 70 |  |  |  |  |  |  |
